Data: BindingDB's records for PubMed 35033884 (Indian Institute of Technology (B.H.U.), 2022)

Experiment: Inhibition of PDK1 (unknown origin)

Row | IC50 [nM] | SMILES
1 | 20 | NC(=O)Nc1ccc2c(c1)/C(=C/c1ccc[nH]1)C(=O)N2 [indolinone based inhibitor, 3l]
2 | 6 | C/C(=C1/C(=O)Nc2ccc(NC(N)=O)cc21)c1cc(CNC(=O)C2CCNCC2)c[nH]1 [N-[(5-{1-[(3Z)-5-(carbamoylamino)-2-oxo-2,3-dihydro-1H-indol-3-ylidene]ethyl}-1H-pyrrol-3-yl)methyl]piperidine-4-carboxamide]
3 | 8 | NC(=O)Nc1ccc2c(c1)/C(=C/c1cc(-c3ccccn3)c[nH]1)C(=O)N2
4 | 4 | CN(C)CCNC(=O)c1cccc(-c2c[nH]c(/C=C3\C(=O)Nc4ccc(NC(N)=O)cc43)c2)c1 [3-(5-{[(3Z)-5-(carbamoylamino)-2-oxo-2,3-dihydro-1H-indol-3-ylidene]methyl}-1H-pyrrol-3-yl)-N-[2-(dimethylamino)ethyl]benzamide]
